Results reported in patent US5019385A, “Novel lymphopine LK 2 and pharmaceutic compositions containing same” (Kabushiki Kaisha Hayashibara Seibutsu Kagaku Kenkyujo, priority 1984, dated 1991).
Counter-ions that a name gives are not always drawn.

Experiments:
[1] = test system: HLE; assay: enhancement of antioncotic effect of chemotherapeutics by LK 2 (Experiment C-1, Table V); assay type: cell-based, human; conditions: ACNU 1.0×10^-6, 5-FU 1.5×10^-8, ADM 1.0×10^-10, MMC 2.5×10^-9 g/ml culture, VCR 1.5×10^-10 g/culture
Procedure: (§1) One human malignant tumor cell suspension (10^6 cells) was inoculated on 1 ml of conventional-type nutrient culture medium supplemented with foetal calf serum, and then cultured for one day. Thereafter, there was added to the culture 0.1 ml of saline containing 100 units of an LK 2 specimen, prepared by the method in Experiment A-3, and/or a chemotherapeutic, and cultured for an additional two days at 37° C.
(§2) As the control, an LK 2- and chemotherapeutic-free saline was used.
(§3) After completion of the culture, the number of viable cells was counted in accordance with the method in Experiment B-1, and the growth inhibition (%) was then determined.
(§4) The concentrations of the tested chemotherapeutics were as follows: nimustine hydrochloride (ACNU), 1.0×10^-6 g/ml culture; fluorouracil (5-FU), 1.5×10^-8 g/ml culture; doxorubicin (ADM), 1.0×10^-10 g/ml culture; mitomycin C (MMC), 2.5×10^-9 g/ml culture; and vincristine sulfate (VCR), 1.5×10^-10 g/culture.

[2] = test system: HEp#2; assay: as above; assay type: cell-based, human; conditions: ACNU 1.0×10^-6, 5-FU 1.5×10^-8, ADM 1.0×10^-10, MMC 2.5×10^-9 g/ml culture, VCR 1.5×10^-10 g/culture
Procedure: as §1, §2, §3, §4

[3] = test system: MKN 7; assay: as above; assay type: cell-based, human; conditions: ACNU 1.0×10^-6, 5-FU 1.5×10^-8, ADM 1.0×10^-10, MMC 2.5×10^-9 g/ml culture, VCR 1.5×10^-10 g/culture
Procedure: as §1, §2, §3, §4

[4] = test system: PC-8; assay: as above; assay type: cell-based, human; conditions: ACNU 1.0×10^-6, 5-FU 1.5×10^-8, ADM 1.0×10^-10, MMC 2.5×10^-9 g/ml culture, VCR 1.5×10^-10 g/culture
Procedure: as §1, §2, §3, §4

[5] = test system: HeLa; assay: as above; assay type: cell-based, human; conditions: ACNU 1.0×10^-6, 5-FU 1.5×10^-8, ADM 1.0×10^-10, MMC 2.5×10^-9 g/ml culture, VCR 1.5×10^-10 g/culture
Procedure: as §1, §2, §3, §4

[6] = test system: human breast cancer tissue; assay: tumor mass in nude mice, LK 2 and/or mitomycin C (Experiment C-2, Table VI); assay type: in vivo, human tissue in BALB/c nude mice; conditions: MMC 1 mg/kg per day i.v., twenty days; control 10.8 ± 1.0; * significant vs control (5%)
Procedure: A group of BALB/c nude mice was transplanted subcutaneously in their dorsum areas with small fragments of human breast cancer tissue.
After the tumor masses grew to about 200 mm^3 in the bodies of the animals, saline containing an LK 2 preparation, obtained by the method described in Experiment A-3, and/or mitomycin C (MMC) was injected intravenously once every day for twenty days.
Thereafter, the animals were sacrificed, and the resultant tumor masses were weighed.
as §2

Structure (SMILES)	growth inhibition (%) to tumor cell ([1]; +, with LK 2 100 units)	growth inhibition (%) to tumor cell ([1]; -, without LK 2)	growth inhibition (%) to tumor cell ([2]; +, with LK 2 100 units)	growth inhibition (%) to tumor cell ([2]; -, without LK 2)	growth inhibition (%) to tumor cell ([3]; +, with LK 2 100 units)	growth inhibition (%) to tumor cell ([3]; -, without LK 2)	growth inhibition (%) to tumor cell ([4]; +, with LK 2 100 units)	growth inhibition (%) to tumor cell ([4]; -, without LK 2)	growth inhibition (%) to tumor cell ([5]; +, with LK 2 100 units)	growth inhibition (%) to tumor cell ([5]; -, without LK 2)	Tumor mass [6]
CC[C@]1(O)C[C@H]2CN(CCc3c([nH]c4ccccc34)[C@@](C(=O)OC)(c3cc4c(cc3OC)N(C=O)[C@H]3[C@@](O)(C(=O)OC)[C@H](OC(C)=O)[C@]5(CC)C=CCN6CC[C@]43[C@@H]65)C2)C1 (stereo in doubt) [VCR, vincristine sulfate]	69%	10%	66%	5%	70%	6%	72%	8%	63%	10%	
O=c1[nH]cc(F)c(=O)[nH]1 [5-FU, fluorouracil]	81%	8%	80%	8%	77%	6%	85%	10%	69%	12%	
Cc1ncc(CNC(=O)N(CCCl)N=O)c(N)n1 [ACNU, nimustine hydrochloride]	75%	5%	67%	4%	73%	4%	71%	2%	71%	5%	
COc1cccc2c1C(=O)c1c(O)c3c(c(O)c1C2=O)C[C@@](O)(C(=O)CO)C[C@@H]3O[C@H]1C[C@H](N)[C@H](O)[C@H](C)O1 [ADM, doxorubicin]	73%	7%	70%	13%	69%	5%	71%	6%	62%	7%	
CO[C@@]12[C@H](COC(N)=O)C3=C(C(=O)C(C)=C(N)C3=O)N1C[C@@H]1N[C@@H]12 [MMC, mitomycin C]	74%	12%	72%	10%	73%	3%	68%	5%	61%	7%	5.1 ± 0.4 g
